Source: US10329270B2, “Heteroaryl compounds as BTK inhibitors and uses thereof” (Merck Patent GmbH, priority 2013, dated 2019)

Target: T1, full-length human BTK (Homo sapiens, UniProt Q06187)
T1 construct: 2.5× stocks of full-length human BTK (08-080); purchased CarnaBio USA, Inc., Natick, Mass; 08-080
Assay: Assay A: BTK IC50 Enzyme Assay (microfluidic off-chip mobility shift kinase assay)
Assay type: biochemical
Details: full-length human BTK, kinKDR peptide substrate, incubated 90 min at 27 C; read-out: Assay A (Time Dependent BTK Enzyme Assay IC50)
In short: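 Off-chip microfluidic mobility shift assay with full-length human BTK; phosphorylated and unphosphorylated peptide substrate were separated by charge/mass on a LabChip 3000.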

T1 sequence (Q06187 whole entry): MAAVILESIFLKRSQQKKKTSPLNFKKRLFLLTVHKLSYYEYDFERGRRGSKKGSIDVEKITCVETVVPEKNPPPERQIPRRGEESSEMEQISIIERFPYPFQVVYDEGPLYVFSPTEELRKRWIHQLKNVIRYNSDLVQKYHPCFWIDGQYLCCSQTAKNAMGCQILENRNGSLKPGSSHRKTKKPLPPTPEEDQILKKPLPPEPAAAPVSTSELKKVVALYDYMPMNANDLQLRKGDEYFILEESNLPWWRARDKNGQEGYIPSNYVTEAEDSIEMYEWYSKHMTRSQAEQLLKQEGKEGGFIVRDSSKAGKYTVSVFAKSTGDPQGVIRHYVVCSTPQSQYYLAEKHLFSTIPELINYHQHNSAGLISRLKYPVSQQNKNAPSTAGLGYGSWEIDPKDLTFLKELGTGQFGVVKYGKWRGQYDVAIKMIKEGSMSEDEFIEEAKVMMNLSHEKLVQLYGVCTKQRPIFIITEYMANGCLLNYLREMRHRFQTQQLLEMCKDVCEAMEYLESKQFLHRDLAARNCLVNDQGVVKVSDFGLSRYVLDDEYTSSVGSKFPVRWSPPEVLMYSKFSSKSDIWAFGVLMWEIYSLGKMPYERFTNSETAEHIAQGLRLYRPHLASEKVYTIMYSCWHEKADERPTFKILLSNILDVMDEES

| Compound | IC50 [nM] |
| --- | --- |
| CN(C)C/C=C/C(=O)N1CCC(Nc2ncc(C(N)=O)c(N)n2)C1 (stereo not shown) [Compound 138, 4-Amino-2-[1-((E)-4-dimethylamino-but-2-enoyl)-pyrrolidin-3-ylamino]-pyrimidine-5-carboxylic acid amide] | > 5000 |
| CN(C)C/C=C/C(=O)N[C@@H]1CCN(c2ncc(C(N)=O)c(N)n2)C1 [Compound 146, 4-Amino-2-[(R)-3-((E)-4-dimethylamino-but-2-enoylamino)-pyrrolidin-1-yl]-pyrimidine-5-carboxylic acid amide] | > 5000 |
| C=CC(=O)N1C2CCC1CN(c1ncc(C(N)=O)c(Oc3ccc(Oc4ccccc4)cc3)n1)C2 [Compound 149, 2-(8-Acryloyl-3,8-diaza-bicyclo[3.2.1]oct-3-yl)-4-(4-phenoxy-phenoxy)-pyrimidine-5-carboxylic acid amide] | < 100 |
| C=CC(=O)N1CCC(c2cnc(C(N)=O)nc2)CC1 [Compound 153] | > 5000 |
| C=CC(=O)N1CCn2ncc(-c3cnc(C(N)=O)nc3)c2C1 [Compound 154] | > 5000 |
| C=CC(=O)N1CCC(c2cnc(C(N)=O)nc2)C1 (stereo not shown) [Compound 155] | > 5000 |
| C=CC(=O)Nc1ccc(-c2ccc(C(N)=O)c(Oc3ccc(Oc4ccccc4)cc3)n2)cc1 [Compound 159, 6-(4-acrylamidophenyl)-2-(4-phenoxyphenoxy)nicotinamide] | > 5000 |
| C=CC(=O)NCc1ccc(-c2ccc(C(N)=O)c(Oc3ccc(Oc4ccccc4)cc3)n2)s1 [Compound 160, 6-(5-(acrylamidomethyl)thiophen-2-yl)-2-(4-phenoxyphenoxy)nicotinamide] | > 5000 |
| C=CC(=O)NCc1ccc(-c2ccc(C(N)=O)c(Oc3ccc(Oc4ccccc4)cc3)n2)o1 [Compound 161, 6-(5-(acrylamidomethyl)furan-2-yl)-2-(4-phenoxyphenoxy)nicotinamide] | > 5000 |
| CN(C)C/C=C/C(=O)N[C@H]1C[C@@H](Nc2ncc(C(N)=O)c(N)n2)C1 [Compound 162, 4-Amino-2-[3-(4-dimethylamino-but-2-enoylamino)-cyclobutylamino]-pyrimidine-5-carboxylic acid amide] | > 5000 |
| C=CC(=O)N[C@H]1CCN(c2nc(Cl)ccc2C(N)=O)C1 [Compound 163, 2-((S)-3-Acryloylamino-pyrrolidin-1-yl)-6-chloro-nicotinamide] | > 5000 |
| C=CC(=O)N[C@H]1CCN(c2ccc(C(N)=O)c(NC3CCOCC3)n2)C1 [Compound 165, 6-((S)-3-Acryloylamino-pyrrolidin-1-yl)-2-(tetrahydro-pyran-4-ylamino)-nicotinamide] | > 5000 |
| C=CC(=O)N[C@H]1CCN(c2ccc(C(N)=O)c(NCCN3CCOCC3)n2)C1 [Compound 166, 6-((S)-3-Acryloylamino-pyrrolidin-1-yl)-2-(2-morpholin-4-yl-ethylamino)-nicotinamide] | > 5000 |
| C=CC(=O)N1CC=C(c2cncc(C(N)=O)c2Nc2ccc(N3C[C@@H](C)O[C@@H](C)C3)nc2)CC1 [Compound 168, 1′-Acryloyl-4-[6-(cis-2,6-dimethyl-morpholin-4-yl)-pyridin-3-ylamino]-1′,2′,3′,6′-tetrahydro-[3,4′]bipyridinyl-5-carboxylic acid amide] | 1000 to 5000 |
| C=CC(=O)N1CC=C(c2cncc(C(N)=O)c2Nc2ccc(C(=O)N3CCCCC3)cc2)CC1 [Compound 169, 1′-Acryloyl-4-[4-(piperidine-1-carbonyl)-phenylamino]-1′,2′,3′,6′-tetrahydro-[3,4′]bipyridinyl-5-carboxylic acid amide] | 1000 to 5000 |
| C=CC(=O)N[C@H]1CCN(c2ncc(C(N)=O)cc2-c2ccc(Oc3ccccc3)cc2)C1 [Compound 170, 6-((S)-3-Acryloylamino-pyrrolidin-1-yl)-5-(4-phenoxy-phenyl)-nicotinamide] | > 5000 |
| C=CC(=O)N[C@H]1CCN(c2ncnc(C(N)=O)c2Cl)C1 [Compound 172, 6-((S)-3-Acryloylamino-pyrrolidin-1-yl)-5-chloro-pyrimidine-4-carboxylic acid amide] | > 5000 |
| C=CC(=O)N1CCC2(CC(Nc3ncc(C(N)=O)c(Oc4ccc(Oc5ccccc5)cc4)n3)C2)C1 (stereo not shown) [Compound 182, 2-((6-acryloyl-6-azaspiro[3.4]octan-2-yl)amino)-4-(4-phenoxyphenoxy)pyrimidine-5-carboxamide] | 1000 to 5000 |
| C=CC(=O)N1CCC(c2cc(Oc3ccc(NC(=O)c4ccccc4)cc3)c(C(N)=O)cn2)C1 (stereo not shown) [Compound 184, 6-(1-Acryloylpyrrolidin-3-yl)-4-(4-benzamidophenoxy)nicotinamide] | 1000 to 5000 |

Continued, values first:

| IC50 [nM] | Compound |
| --- | --- |
| < 100 | C=CC(=O)N[C@H]1CCN(c2ncc(C(N)=O)c(Nc3ccc(C(=O)N4CCOCC4)cc3)n2)C1 [Compound 140, 2-((S)-3-Acryloylamino-pyrrolidin-1-yl)-4-[4-(morpholine-4-carbonyl)-phenylamino]-pyrimidine-5-carboxylic acid amide] |
| 100 to 1000 | C=CC(=O)N1CCC(Nc2ncc(C(N)=O)c(N)n2)C1 (stereo not shown) [Compound 141, 2-(1-Acryloyl-pyrrolidin-3-ylamino)-4-amino-pyrimidine-5-carboxylic acid amide] |
| 100 to 1000 | C=CC(=O)N[C@H]1CCN(c2ncc(C(N)=O)c(N)n2)C1 [Compound 142, 2-((S)-3-Acryloylamino-pyrrolidin-1-yl)-4-amino-pyrimidine-5-carboxylic acid amide] |
| 100 to 1000 | C=CC(=O)N[C@H]1C[C@@H](Nc2ncc(C(N)=O)c(N)n2)C1 [Compound 143, 2-(3-Acryloylamino-cyclobutylamino)-4-amino-pyrimidine-5-carboxylic acid amide] |
| 100 to 1000 | C=CC(=O)N[C@@H]1CCN(c2ncc(C(N)=O)c(N)n2)C1 [Compound 144, 2-((R)-3-Acryloylamino-pyrrolidin-1-yl)-4-amino-pyrimidine-5-carboxylic acid amide] |
| 1000 to 5000 | CN(C)C/C=C/C(=O)N[C@H]1CCN(c2ncc(C(N)=O)c(N)n2)C1 [Compound 145, 4-Amino-2-[(S)-3-((E)-4-dimethylamino-but-2-enoylamino)-pyrrolidin-1-yl]-pyrimidine-5-carboxylic acid amide] |
| < 100 | C=CC(=O)N1C[C@@H]2C[C@H]1CN2c1ncc(C(N)=O)c(Oc2ccc(Oc3ccccc3)cc2)n1 [Compound 147, 2-((1S,4S)-5-acryloyl-2,5-diazabicyclo[2.2.1]heptan-2-yl)-4-(4-phenoxyphenoxy)pyrimidine-5-carboxamide] |
| < 100 | C=CC(=O)N1CCC(c2ncc(C(N)=O)c(Oc3ccc(Oc4ccccc4)cc3)n2)CC1 [Compound 148, 2-(1-Acryloyl-piperidin-4-yl)-4-(4-phenoxy-phenoxy)-pyrimidine-5-carboxylic acid amide] |
| 100 to 1000 | C=CC(=O)N1CCC(c2ncc(C(N)=O)c(Oc3ccc(Oc4ccccc4)cc3)n2)C1 (stereo not shown) [Compound 150, 2-(1-Acryloyl-pyrrolidin-3-yl)-4-(4-phenoxy-phenoxy)-pyrimidine-5-carboxylic acid amide] |
| 100 to 1000 | C=CC(=O)N1CCN(c2ncc(C(N)=O)c(Oc3ccc(Oc4ccccc4)cc3)n2)C(C)(C)C1 [Compound 151] |
| 1000 to 5000 | C=CC(=O)NCc1cccc(-c2cnc(C(N)=O)nc2)c1 [Compound 152] |
| < 100 | C=CC(=O)N[C@H]1CCN(c2nc(Nc3ccc(NC(=O)C(C)(C)C)cc3)ccc2C(N)=O)C1 [Compound 156, 2-((S)-3-Acryloylamino-pyrrolidin-1-yl)-6-[4-(2,2-dimethyl-propionylamino)-phenylamino]-nicotinamide] |
| < 100 | C=CC(=O)N[C@H]1CCN(c2nc(Nc3ccc(F)c(C)c3)ccc2C(N)=O)C1 [Compound 157, 2-((S)-3-Acryloylamino-pyrrolidin-1-yl)-6-(4-fluoro-3-methyl-phenylamino)-nicotinamide] |
| 100 to 1000 | C=CC(=O)N1CCN(c2nc(N(C)c3cccc(C)c3)ccc2C(N)=O)CC1 [Compound 158, 2-(4-Acryloyl-piperazin-1-yl)-6-(methyl-m-tolyl-amino)-nicotinamide] |
| 1000 to 5000 | C/C=C/C(=O)N1CCC(c2cnc(Oc3ccc(Oc4cccc(F)c4)cc3)c(C(N)=O)c2)C1 (stereo not shown) [Compound 167, 5-[1-((E)-But-2-enoyl)-pyrrolidin-3-yl]-2-[4-(3-fluoro-phenoxy)-phenoxy]-nicotinamide] |
| 100 to 1000 | C=CC(=O)N1CCC(Nc2ncc(C(N)=O)c(Oc3ccc(Oc4ccccc4)cc3)n2)CC12CCC2 (stereo not shown) [Compound 175, 2-(5-Acryloyl-5-aza-spiro[3.5]non-8-ylamino)-4-(4-phenoxy-phenoxy)-pyrimidine-5-carboxylic acid amide] |
| 100 to 1000 | C=CC(=O)N[C@H]1C[C@H](Nc2ncc(C(N)=O)c(Oc3ccc(Oc4ccccc4)cc3)n2)C1 [Compound 176, 2-(((1r,3r)-3-acrylamidocyclobutyl)amino)-4-(4-phenoxyphenoxy)pyrimidine-5-carboxamide] |
| < 100 | C=CC(=O)N[C@H]1CCN(c2ncc(C#N)c(Nc3ccc(C(=O)NC(C)(C)C)cc3)n2)C1 [Compound 178] |
| < 100 | C=CC(=O)N[C@H]1CCN(c2nc(Nc3ccc(N4CC(C)OC(C)C4)c(F)c3)c(C(N)=O)cc2F)C1 (stereo partly drawn) [Compound 181, 6-((S)-3-Acryloylamino-pyrrolidin-1-yl)-2-[4-(2,6-dimethyl-morpholin-4-yl)-3-fluoro-phenylamino]-5-fluoro-nicotinamide] |
| 100 to 1000 | C=CC(=O)N1CC2(CC(Nc3ncc(C(N)=O)c(Oc4ccc(Oc5ccccc5)cc4)n3)C2)C1 [Compound 183, 2-((2-acryloyl-2-azaspiro[3.3]heptan-6-yl)amino)-4-(4-phenoxyphenoxy)pyrimidine-5-carboxamide] |
| < 100 | C=CC(=O)N1CCC(c2ccc(C(N)=O)c(Oc3ccc(Oc4cccc(C#N)c4)cc3)n2)C1 (stereo not shown) [Compound 185, 6-(1-Acryloylpyrrolidin-3-yl)-2-(4-(3-cyanophenoxy)phenoxy)nicotinamide] |
